Consider 51 compounds from patent US20260226047A1, “BENZIMIDAZOLE AND AZA-BENZIMIDAZOLE BASED IL-17A MODULATORS AND USES THEREOF” (DICE ALPHA, INC., priority 2023, published 2026).

Each structure is given as a SMILES string.

In this experiment the target is T1, IL-17A/A (Homo sapiens, UniProt Q16552).
T1 construct: purchased Genscript Z03228
T1 sequence (Q16552 24-155): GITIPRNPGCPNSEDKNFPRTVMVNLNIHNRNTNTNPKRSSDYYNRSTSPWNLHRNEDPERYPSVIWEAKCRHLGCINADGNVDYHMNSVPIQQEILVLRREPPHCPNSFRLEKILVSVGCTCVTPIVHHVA
Nature of the experiment: IL-17A/A HEK-Blue Cell Assay. To be noted: IL-17A/A inhibition, HEK-Blue IL-17A reporter cell line, SEAP readout at A630, incubated for 20 hours. Format: cell-based. Here is the method:
Example 3: IL-17A/A HEK-Blue Cell Assay
The HEK-Blue IL-17A reporter cell line (Fisher #NC1408637) was used for cell-based IL-17A/A inhibition assays. Cells were grown and prepared for assays according to the manufacturer's instructions. This cell line consists of HEK 293 cells that were designed to expressed IL-17RA, IL-17RC, and the ActI adapter molecule, the combination of which, when stimulated by IL-17A/A activates a NFκB promoter and drives expression of a recombinant Secreted Alkaline Phosphatase (SEAP) gene protein. Media from the cells is then added to a development reagent (Quanti-Blue Substrate, Fisher #NC9711613), and read at A630.
Compounds were titrated in DMSO, with a top final compound concentration of 10 μM, 1 uM, or 0.3 μM, and added to the cells immediately before adding IL-17A/A (Genscript #Z03228). The cells, compound, and IL-17A/A were then incubated for 20 hours before media was removed for SEAP analysis. The resulting inhibition curve was then analyzed using Graphpad Prism 7.0, and IC50 values were determined using a 4-parameter nonlinear fit. DMSO was added to a universal final concentration of 0.1% to optimize background.
Take `CCn1nccc1C(=O)N[C@H](c1nc2c(F)c(CC3CCNC3=O)ccc2[nH]1)C(C1CC1)C1CC1` (mixture of isomers) [Compound 2, N-((1S)-2,2-dicyclopropyl-1-(7-fluoro-6-((2-oxopyrrolidin-3-yl)methyl)-1H-benzo[d]imidazol-2-yl)ethyl)-1-ethyl-1H-pyrazole-5-carboxamide]: the IC50 is 0.1 to 1 µM.

As to `CCn1nccc1C(=O)NC(c1nc2nc(CC3CCNC3=O)ccc2[nH]1)C1CCC(F)(F)CC1` (mixture of isomers) [Compound 9], the 50% inhibitory concentration (IC50) is > 1 µM.

Take `CCn1nccc1C(=O)N[C@H](c1nc2c(F)c(C[C@H]3CCNC3=O)ccc2[nH]1)C(C1CC1)C1CC1` (single isomer, unassigned) [Compound 1]: the IC50 was 0.1 to 1 µM.

On to `CCn1nccc1C(=O)N[C@H](c1nc2cc(C[C@H]3C[C@@H](C(F)(F)F)NC3=O)ccc2[nH]1)C(C1CC1)C1CC1` (single isomer, unassigned) [Compound 3], for which the IC50 was < 0.1 µM.

On to `CCn1nccc1C(=O)N[C@H](c1nc2cc(C[C@@H]3C[C@@H](C(F)(F)F)NC3=O)ccc2[nH]1)C(C1CC1)C1CC1` (single isomer, unassigned) [Compound 4], for which the IC50 fell in the range of 0.1 to 1 µM.

Take `CCn1nccc1C(=O)N[C@H](c1nc2cc(C[C@@H]3C[C@H](C(F)(F)F)NC3=O)ccc2[nH]1)C(C1CC1)C1CC1` (single isomer, unassigned) [Compound 5]: the half-inhibitory concentration (IC50) is > 1 µM.

As to `CCn1nccc1C(=O)N[C@H](c1nc2c(F)c(CC3CCC(C(F)(F)F)NC3=O)ccc2[nH]1)C(C1CC1)C1CC1` (single isomer, unassigned) [Compound 47], the IC50 lay in the range of 0.1 to 1 µM.

For `CCn1nccc1C(=O)N[C@H](c1nc2c(F)c(CC3CCC(C(F)(F)F)NC3=O)ccc2[nH]1)C(C1CC1)C1CC1` (single isomer, unassigned) [Compound 48], the 50% inhibitory concentration (IC50) is > 1 µM.

In the case of `CCn1nccc1C(=O)N[C@H](c1nc2c(F)c(CC3CCC(C(F)(F)F)NC3=O)ccc2[nH]1)C(C1CC1)C1CC1` (single isomer, unassigned) [Compound 49], the IC50 is > 1 µM.

With `CCn1nccc1C(=O)N[C@H](c1nc2c(F)c(CC3CCC(C(F)(F)F)NC3=O)ccc2[nH]1)C(C1CC1)C1CC1` (single isomer, unassigned) [Compound 50], the concentration for half-maximal inhibition (IC50) was < 0.1 µM.

Take `CCn1nccc1C(=O)N[C@H](c1nc2c(F)c(CC3CCC(C(F)(F)F)NC3=O)ccc2[nH]1)C(C1CC1)C1CC1` (single isomer, unassigned) [Compound 51]: the IC50 fell in the range of 0.1 to 1 µM.

For `CCn1nccc1C(=O)N[C@H](c1nc2cc(C[C@H]3CCNC3=O)ccc2[nH]1)C1CCCCCC1` [Compound 6], the IC50 was < 0.1 µM.

Turning to `CCn1nccc1C(=O)N[C@H](c1nc2cc(C[C@H]3CCNC3=O)ccc2[nH]1)C1CCC(F)(F)CC1` [Compound 7], the half-inhibitory concentration (IC50) was 0.1 to 1 µM.

In the case of `CCn1nccc1C(=O)N[C@H](c1nc2cc(C[C@@H]3CCNC3=O)ccc2[nH]1)C1CCC(F)(F)CC1` [Compound 8], the IC50 is > 1 µM.

As to `CCn1nccc1C(=O)N[C@H](c1nc2nc(C[C@H]3CCNC3=O)ccc2[nH]1)C1CCC(F)(F)CC1` [Compound 10], the 50% inhibitory concentration (IC50) is > 1 µM.

Turning to `CCn1nccc1C(=O)N[C@H](c1nc2c(F)c(CC3CCNC3=O)ccc2[nH]1)C1CCC(F)(F)CC1` (stereo partly drawn) [Compound 11], the 50% inhibitory concentration (IC50) fell in the range of 0.1 to 1 µM.

`CCn1nccc1C(=O)N[C@H](c1nc2c(F)c(C[C@@H]3CCNC3=O)ccc2[nH]1)C1CCC(F)(F)CC1` [Compound 12]: the concentration for half-maximal inhibition (IC50) is > 1 µM.

For `CCn1nccc1C(=O)N[C@H](c1nc2cc(C[C@H]3CCNC3=O)cc(F)c2[nH]1)C1CCC(F)(F)CC1` [Compound 13], the IC50 was in the range of 0.1 to 1 µM.

`CCn1nccc1C(=O)N[C@H](c1nc2cc(C[C@@H]3CCNC3=O)cc(F)c2[nH]1)C1CCC(F)(F)CC1` [Compound 14]: the IC50 is > 1 µM.

For the compound `CCn1nccc1C(=O)N[C@H](c1nc2cc(CC3CCNC3=O)ccc2[nH]1)C(C1CC1)C1CC1` (stereo partly drawn) [Compound 15], the IC50 fell in the range of 0.1 to 1 µM.

Consider `CCn1nccc1C(=O)N[C@H](c1nc2cc(C[C@H]3CCNC3=O)ccc2[nH]1)C(C1CC1)C1CC1` [Compound 16], for which the IC50 was in the range of 0.1 to 1 µM.

Regarding `CCn1nccc1C(=O)N[C@H](c1nc2ccc(CC3CCCNC3=O)cc2[nH]1)C(C1CC1)C1CC1` (stereo partly drawn) [Compound 17], the IC50 lay in the range of 0.1 to 1 µM.

As for `CCn1nccc1C(=O)N[C@H](c1nc2ccc(C[C@@H]3CCCNC3=O)cc2[nH]1)C(C1CC1)C1CC1` [Compound 18], the concentration for half-maximal inhibition (IC50) is > 1 µM.

Regarding `CCn1nccc1C(=O)N[C@H](c1nc2ccc(CC3(C)CCNC3=O)cc2[nH]1)C(C1CC1)C1CC1` (stereo partly drawn) [Compound 19], the IC50 is > 1 µM.

With `CCn1nccc1C(=O)N[C@H](c1nc2ccc(CC3(C)CCNC3=O)cc2[nH]1)C(C1CC1)C1CC1` (stereo partly drawn) [Compound 20], the IC50 is 0.1 to 1 µM.

Turning to `CCn1nccc1C(=O)N[C@H](c1nc2cc(C(C)C3CCNC3=O)ccc2[nH]1)C(C1CC1)C1CC1` (stereo partly drawn) [Compound 21], the IC50 was 0.1 to 1 µM.

Take `CCn1nccc1C(=O)N[C@H](c1nc2cc(C(C)C3CCNC3=O)ccc2[nH]1)C(C1CC1)C1CC1` (stereo partly drawn) [Compound 22]: the IC50 was > 1 µM.

As for `CCn1nccc1C(=O)N[C@H](c1nc2cc(C(C)C3CCNC3=O)ccc2[nH]1)C(C1CC1)C1CC1` (stereo partly drawn) [Compound 23], the IC50 was > 1 µM.

For `CCn1nccc1C(=O)N[C@H](c1nc2cc(C(C)C3CCNC3=O)ccc2[nH]1)C(C1CC1)C1CC1` (stereo partly drawn) [Compound 24], the IC50 was > 1 µM.

For `CCc1nonc1C(=O)N[C@H](c1nc2ccc(C[C@H]3CCNC3=O)cc2[nH]1)C1CCC(F)(F)CC1` [Compound 25], the IC50 lay within 0.1 to 1 µM.

Take `CCn1nccc1C(=O)N[C@H](c1nc2cc(C)c(CC3CCNC3=O)cc2[nH]1)C(C1CC1)C1CC1` (stereo partly drawn) [Compound 26]: the IC50 was > 1 µM.

For the compound `CCn1nccc1C(=O)N[C@H](c1nc2cc(C[C@@H]3CCNC3=O)ccc2[nH]1)C(C1CC1)C1CC1` [Compound 27], the 50% inhibitory concentration (IC50) is > 1 µM.

As for `CCn1nccc1C(=O)N[C@@H](c1nc2nc(C[C@H]3CCNC3=O)ccc2[nH]1)C1CCC(F)(F)CC1` [Compound 28], the IC50 was > 1 µM.

For the compound `CCn1nccc1C(=O)N[C@@H](c1nc2nc(CC3CCNC3=O)ccc2[nH]1)C1CCC(F)(F)CC1` (stereo partly drawn) [Compound 29], the IC50 was > 1 µM.

On to `CCn1nccc1C(=O)N[C@H](c1nc2nc(CC3CCNC3=O)ccc2[nH]1)C1CCC(F)(F)CC1` (stereo partly drawn) [Compound 30], for which the half-maximal inhibitory concentration (IC50) was > 1 µM.

On to `CCn1nccc1C(=O)N[C@H](c1nc2cc(C[C@@H]3CCNC3=O)cc(F)c2[nH]1)C(C1CC1)C1CC1` [Compound 31], for which the IC50 was > 1 µM.

For `CCn1nccc1C(=O)N[C@H](c1nc2cc(C[C@H]3CCNC3=O)cc(F)c2[nH]1)C(C1CC1)C1CC1` [Compound 32], the half-maximal inhibitory concentration (IC50) is 0.1 to 1 µM.

Take `CCn1nccc1C(=O)N[C@H](c1nc2cc(CC3CC(C(F)(F)F)NC3=O)cc(F)c2[nH]1)C(C1CC1)C1CC1` (stereo partly drawn) [Compound 33]: the concentration for half-maximal inhibition (IC50) lay within 0.1 to 1 µM.

Take `CCn1nccc1C(=O)N[C@H](c1nc2cc(C[C@H]3C[C@@H](C(F)(F)F)NC3=O)cc(F)c2[nH]1)C(C1CC1)C1CC1` [Compound 34]: the concentration for half-maximal inhibition (IC50) is < 0.1 µM.

On to `CCn1nccc1C(=O)N[C@H](c1nc2ccc(C[C@H]3CCCNC3=O)cc2[nH]1)C(C1CC1)C1CC1` [Compound 35], for which the half-maximal inhibitory concentration (IC50) is 0.1 to 1 µM.

Consider `CCn1nccc1C(=O)N[C@H](c1nc2ccc(C[C@@H]3CCCNC3=O)c(F)c2[nH]1)C(C1CC1)C1CC1` [Compound 36], for which the IC50 was > 1 µM.

As to `CCn1nccc1C(=O)N[C@H](c1nc2c(F)c(C[C@@H]3C[C@@H](C(F)(F)F)NC3=O)ccc2[nH]1)C(C1CC1)C1CC1` [Compound 37], the IC50 fell in the range of 0.1 to 1 µM.

Turning to `CCn1nccc1C(=O)N[C@H](c1nc2c(F)c(C[C@H]3C[C@H](C(F)(F)F)NC3=O)ccc2[nH]1)C(C1CC1)C1CC1` [Compound 38], the IC50 lay in the range of 0.1 to 1 µM.

Consider `CCn1nccc1C(=O)N[C@H](c1nc2c(F)c(CC3CC(C(F)(F)F)NC3=O)ccc2[nH]1)C(C1CC1)C1CC1` (stereo partly drawn) [Compound 39], for which the IC50 is > 1 µM.

`CCn1nccc1C(=O)N[C@H](c1nc2c(F)c(C[C@H]3C[C@@H](C(F)(F)F)NC3=O)ccc2[nH]1)C(C1CC1)C1CC1` [Compound 40]: the IC50 is < 0.1 µM.

`CCn1nccc1C(=O)N[C@H](c1nc2cc(CC3CC(C(F)(F)F)NC3=O)cc(F)c2[nH]1)C(C1CC1)C1CC1` (stereo partly drawn) [Compound 41]: the half-inhibitory concentration (IC50) lay in the range of 0.1 to 1 µM.

For `CCn1nccc1C(=O)N[C@H](c1nc2cc(CC3CC(C(F)(F)F)NC3=O)cc(F)c2[nH]1)C(C1CC1)C1CC1` (stereo partly drawn) [Compound 42], the IC50 was > 1 µM.

Consider `CCn1nccc1C(=O)N[C@H](c1nc2cc(CC3CCC(C(F)(F)F)NC3=O)ccc2[nH]1)C(C1CC1)C1CC1` (stereo partly drawn) [Compound 43], for which the 50% inhibitory concentration (IC50) is 0.1 to 1 µM.

Take `CCn1nccc1C(=O)N[C@H](c1nc2cc(CC3CCC(C(F)(F)F)NC3=O)ccc2[nH]1)C(C1CC1)C1CC1` (stereo partly drawn) [Compound 44]: the IC50 is > 1 µM.

As for `CCn1nccc1C(=O)N[C@H](c1nc2cc(CC3CCC(C(F)(F)F)NC3=O)ccc2[nH]1)C(C1CC1)C1CC1` (stereo partly drawn) [Compound 45], the IC50 was in the range of 0.1 to 1 µM.

On to `CCn1nccc1C(=O)N[C@H](c1nc2cc(CC3CCC(C(F)(F)F)NC3=O)ccc2[nH]1)C(C1CC1)C1CC1` (stereo partly drawn) [Compound 46], for which the IC50 is > 1 µM.
